From patent US11209421B2, “Cytidine deaminase expression level in cancer as a new therapeutic target” (CENTRE NATIONAL DE LA RECHERCHE SCIENTIFIQUE, priority 2016, dated 2021)
Like-named read-outs stand apart in the source and are kept apart here.

How the values were obtained:
[1] = system: breast cancer cell lines (MDA-MB-231, HCC-1954, MCF-7, BT-20) and IGROV-1
Procedure: D, Cell viability, as assessed in MTT assays on breast cancer cell lines (MDA-MB-231, HCC-1954, MCF-7, BT-20) and an ovarian cell cancer line (IGROV-1) after 96 h of treatment with 5-Aza-dC. Error bars represent the mean±SD of 3 independent experiments for IGROV-1 and 2 experiments for the other cell lines. […] The dashed lines indicate the 5-Aza-dC concentrations used in this study.
Cell viability was carried out with 3-(4,5-dimethyl-2-thiazolyl)-2,5 diphenyl-2H-tetrazolium bromide (MTT-Life Technologies) in 96-well microplates.

CDA mRNA = experiment: RT-qPCR analysis of the induction of CDA expression; assay type: cell-based, human; settings: 96 hours, 2.5 μM 5-Aza-dC
Procedure: For evaluation of the induction of CDA expression, RNA was isolated from cell lines continuously treated with 1 or 2.5 μM of 5-Aza-2′-deoxycytidine (5-Aza-dC—Sigma Aldrich) for 96 hours.
The procedure for real-time PCR (RT-qPCR) was as described by Gemble et al. (cf. Reference 19). In brief, total RNA was extracted from PDX tissues and from cell lines with the RNeasy Mini Kit (Qiagen). Reverse transcription was performed on 1 μg of RNA with the GoScript enzyme (Promega). The cDNA obtained was used at a dilution of 1/10 for real-time PCR with the SYBER Green supermix reagent (Biorad) in a Biorad CFX96 machine. Each sample was run in triplicate. Relative expression was determined by the 2^−ΔΔCt method. GAPDH and TBP were used as internal controls.

CDA protein = experiment: Western blot analysis of the induction of CDA expression; assay type: cell-based, human; settings: HCC-1954 and IGROV-1, 1 μM 5-Aza-dC for 96 h
Procedure: For western blotting, cells were harvested by centrifugation and lysed in 8 M urea, 50 mM Tris-HCl, pH 7.5 and 150 mM β-mercaptoethanol buffer supplemented with protease inhibitor (ThermoScientific). They were then sonicated and heated. Protein concentration was estimated with the BCA kit (Pierce) and the equivalent of 20 μg or protein per cell lysate was run on a 4-12% Bis-Tris pre-cast gel (Life Technologies). The proteins were then transferred to PVDF membranes, which were probed with the appropriate antibody. Protein bands were visualized with a CCD camera (BioRad).

MDA-MB-468 xenograft = settings: cited from earlier work; for median tumor growth inhibition: compared to control
MDA-MB-231 xenograft = settings: cited from earlier work
CDA-depleted HeLa cells = experiment: Images of CDA-depleted HeLa cells 24 h after Dasatinib treatment; assay type: cell-based, human; settings: 24 h after 0.5 or 1 μM
HCC-1954 cells = experiment: MTT cell viability, HCC-1954 (gemcitabine after 5-Aza-dC pretreatment); assay type: cell-based, human; settings: pretreatment 96 h with 1 μM 5-Aza-dC versus untreated, then gemcitabine 72 hours
Procedure: (§1) Cell viability was carried out with 3-(4,5-dimethyl-2-thiazolyl)-2,5 diphenyl-2H-tetrazolium bromide (MTT-Life Technologies) in 96-well microplates. The functionality of CDA was assessed by plating HCC-1954 and IGROV-1 cells at densities of 2000 and 3000 cells/well, respectively, on the day before pretreatment and at a density of 800 cells/well for control conditions. Cells were then left untreated or subjected to pretreatment with 1 μM 5-Aza-dC for 96 h. The cells were washed twice with PBS buffer, placed in fresh medium and incubated for 72 hours in the presence of various concentrations of gemcitabine, from 0.001 to 1 μM (Sigma Aldrich). The data were normalized to corresponding controls, for each condition.

IGROV-1 cells = experiment: MTT cell viability, IGROV-1; assay type: cell-based, human; settings: pretreatment 96 h with 1 μM 5-Aza-dC versus untreated, then gemcitabine 72 hours
Procedure: as §1

[2] = MDA-MB-231 xenograft mice, 70 mg/kg

With `Nc1ncn([C@H]2C[C@H](O)[C@@H](CO)O2)c(=O)n1` [5-Aza-dC, 5-Aza-2′-deoxycytidine] the “toxicity (cell viability, MTT)” value [1] was “without major toxicity”, the “induction of CDA mRNA levels” value (CDA mRNA; 7 CDA-deficient cell lines) was “up to 1000 fold” and the “induction of CDA transcript levels” value (CDA mRNA; MDA-MB-231, HOP-92, HCC-1143 and HCC-1937 control cell lines with constitutively high CDA) was “two-fold”. For the same compound, the “induction of CDA protein production” value (CDA protein) was “strongly induced the production of a functional CDA protein”.

In the case of `Cc1c(F)c(N)c2c(=O)cc(-c3ccc(NC(=O)[C@@H](N)CCCCN)c(F)c3)oc2c1F` [AFP464], the tolerance (MDA-MB-468 xenograft; MDA-MB-468 xenograft mice, 35 and 50 mg/kg) is listed as “well tolerated”, the tumor growth (MDA-MB-468 xenograft; MDA-MB-468 xenograft, 35 or 50 mg/kg i.v., compared to vehicle control) is listed as “statistically significantly delayed tumor growth” and the “median tumor growth inhibition” value (MDA-MB-468 xenograft; MDA-MB-468 xenograft, after one cycle of treatment) is listed as 57%. For the same compound, the “median tumor growth inhibition” value (MDA-MB-468 xenograft; MDA-MB-468 xenograft, after two cycles of treatment) was 54%, the tolerance (MDA-MB-231 xenograft; MDA-MB-231 xenograft mice, 35 mg/kg) was “well tolerated” and the body weight loss (MDA-MB-231 xenograft; [2]) was “up to 15%”. The “death of mice during the course of treatment” value (MDA-MB-231 xenograft; [2]) was 1 of 7 and the “antitumor activity (inhibition)” value (MDA-MB-231 xenograft; MDA-MB-231 xenograft, AFP464 alone, 35 or 70 mg/kg) was 0%.

For `Cc1nc(Nc2ncc(C(=O)Nc3c(C)cccc3Cl)s2)cc(N2CCN(CCO)CC2)n1` [NSC 759877, Dasatinib], the “effect on cell morphology (images)” value (CDA-depleted HeLa cells) was “no effect”.

In the case of `Nc1ccn([C@@H]2O[C@H](CO)[C@@H](O)C2(F)F)c(=O)n1` [gemcitabine], the “gemcitabine resistance (cell survival, MTT)” value (HCC-1954 cells) is reported as “significant increase in gemcitabine resistance” and the “gemcitabine resistance (cell survival, MTT)” value (IGROV-1 cells) is reported as “significant increase in gemcitabine resistance”.
